Experimental data published in PubChem BioAssay AID330 (DTP/NCI, 2004).
Values joined by “and” are separate entries in the source; they are usually repeats but may differ in a detail not shown here. Identical values can stand only once. Toxic doses and inconclusive results are not listed. Rule for the calls: active = survival T/C of 150% or more; inactive = T/C below 125% in these data.

Test system: P388 leukemia ip, CD2F1 mice, survival T/C
Test: NCI In Vivo Anticancer Drug Screen. Data for tumor model P388 Leukemia (intraperitoneal) in CD2F1 (CDF1) mice
Details: endpoint: median survival time, higher = longer survival
Procedure, shortened: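 Mice carrying the transplanted tumor received test compound or vehicle. Survival was recorded in each group, and the value is the treated-group measurement divided by that of the vehicle-treated control group.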

[1] = dose: 25.0 mg/kg/injection, schedule: Q01DX005 (ip), vehicle: Klucel (hydroxypropylcellulose) (HPC)
[2] = dose: 50.0 mg/kg/injection, schedule: Q01DX005 (ip), vehicle: Klucel (hydroxypropylcellulose) (HPC)
[3] = dose: 100.0 mg/kg/injection, schedule: Q01DX005 (ip), vehicle: Klucel (hydroxypropylcellulose) (HPC)
[4] = dose: 200.0 mg/kg/injection, schedule: Q01DX005 (ip), vehicle: Klucel (hydroxypropylcellulose) (HPC)
[5] = dose: 100.0 mg/kg/injection, schedule: Q01DX009 (ip), vehicle: saline with Tween-80
[6] = dose: 200.0 mg/kg/injection, schedule: Q01DX009 (ip), vehicle: saline with Tween-80

Measured: T/C

COC(=O)/C(C#N)=C/c1cc(OC)c(O)cc1Br
inactive: [1] 104 % of control | [2] 104 % of control and 88 % of control | [3] 105 % of control | [4] 100 % of control

O=C(NC(=O)c1c(F)cccc1F)Nc1cc(Cl)c(F)c(Cl)c1F
inactive: dose: 15.0 mg/kg/injection, schedule: Q01DX005 (ip), vehicle: Klucel (hydroxypropylcellulose) (HPC) 98 % of control | dose: 30.0 mg/kg/injection, schedule: Q01DX005 (ip), vehicle: Klucel (hydroxypropylcellulose) (HPC) 90 % of control and 93 % of control | dose: 60.0 mg/kg/injection, schedule: Q01DX005 (ip), vehicle: Klucel (hydroxypropylcellulose) (HPC) 87 % of control and 94 % of control | dose: 120.0 mg/kg/injection, schedule: Q01DX005 (ip), vehicle: Klucel (hydroxypropylcellulose) (HPC) 93 % of control | dose: 240.0 mg/kg/injection, schedule: Q01DX005 (ip), vehicle: Klucel (hydroxypropylcellulose) (HPC) 88 % of control

COC(=O)C(C)NC(=O)C(CCSC)NC(=O)OC(C)(C)C (configuration not stated)
inactive: [1] 98 % of control | [2] 100 % of control and 102 % of control | [3] 95 % of control | [4] 104 % of control

COCCCn1c(-c2ccc(Cl)cc2)nn2c(=O)c3ccccc3nc2c1=O
inactive: dose: 50.0 mg/kg/injection, schedule: Q01DX009 (ip), vehicle: saline 97 % of control | dose: 100.0 mg/kg/injection, schedule: Q01DX009 (ip), vehicle: saline 92 % of control | dose: 200.0 mg/kg/injection, schedule: Q01DX009 (ip), vehicle: saline 92 % of control

CC(/C=C/c1ccc2c(c1)OCO2)=N\NC(N)=S
inactive: dose: 3.13 mg/kg/injection, schedule: Q01DX005 (ip), vehicle: saline with Tween-80 104 % of control | dose: 6.25 mg/kg/injection, schedule: Q01DX005 (ip), vehicle: saline with Tween-80 112 % of control

O=[N+]([O-])c1ccc(C(O)C(Br)[N+](=O)[O-])cc1 (configuration not stated)
inactive: [5] 104 % of control | [6] 104 % of control | dose: 400.0 mg/kg/injection, schedule: Q01DX009 (ip), vehicle: saline with Tween-80 95 % of control

CCCCCCCCC(CCc1ccccc1)CCc1ccccc1
inactive: dose: 50.0 mg/kg/injection, schedule: Q01DX001 (ip), vehicle: saline with Tween-80 88 % of control | dose: 200.0 mg/kg/injection, schedule: Q01DX001 (ip), vehicle: saline with Tween-80 100 % of control

Nc1c2cc3c(cc2c[n+]2ccc4ccccc4c12)OCO3
inactive: dose: 6.25 mg/kg/injection, schedule: Q04DX003 (ip), vehicle: distilled water + Tween-80 111 % of control and 113 % of control and 115 % of control | dose: 12.5 mg/kg/injection, schedule: Q04DX003 (ip), vehicle: distilled water + Tween-80 113 % of control and 116 % of control and 120 % of control | dose: 25.0 mg/kg/injection, schedule: Q04DX003 (ip), vehicle: distilled water + Tween-80 111 % of control (2×) and 123 % of control

COc1ccc(CN2C(=O)C(Cl)=C(Cl)C2=O)c(OC)c1
inactive: dose: 60.0 mg/kg/injection, schedule: Q01DX005 (ip), vehicle: saline with Tween-80 100 % of control | dose: 120.0 mg/kg/injection, schedule: Q01DX005 (ip), vehicle: saline with Tween-80 94 % of control

CC(=O)Nc1cccc(N)c1
inactive: dose: 33.0 mg/kg/injection, schedule: Q04DX003 (ip), vehicle: saline 95 % of control | dose: 50.0 mg/kg/injection, schedule: Q04DX003 (ip), vehicle: saline 95 % of control | dose: 75.0 mg/kg/injection, schedule: Q04DX003 (ip), vehicle: saline 100 % of control

Nc1[nH]c(=O)[nH]c(=O)c1N
inactive: dose: 50.0 mg/kg/injection, schedule: Q01DX009 (ip), vehicle: saline with Tween-80 100 % of control | [5] 100 % of control | [6] 100 % of control

CSc1cccc(NC(=O)Nc2ccccc2C(N)=O)c1
inactive: dose: 50.0 mg/kg/injection, schedule: Q01DX009 (ip), vehicle: Klucel (hydroxypropylcellulose) (HPC) 94 % of control | dose: 100.0 mg/kg/injection, schedule: Q01DX009 (ip), vehicle: Klucel (hydroxypropylcellulose) (HPC) 103 % of control | dose: 200.0 mg/kg/injection, schedule: Q01DX009 (ip), vehicle: Klucel (hydroxypropylcellulose) (HPC) 94 % of control

Nc1ccn(C2OC(CO)C3OP(=O)(O)OC32)c(=O)n1 (configuration not stated)
inactive: dose: 25.0 mg/kg/injection, schedule: Q01DX005 (ip), vehicle: water 101 % of control | dose: 50.0 mg/kg/injection, schedule: Q01DX005 (ip), vehicle: water 100 % of control | dose: 100.0 mg/kg/injection, schedule: Q01DX005 (ip), vehicle: water 101 % of control | dose: 200.0 mg/kg/injection, schedule: Q01DX005 (ip), vehicle: water 101 % of control | dose: 400.0 mg/kg/injection, schedule: Q01DX005 (ip), vehicle: water 100 % of control
